# From ChEMBL document CHEMBL1124319, “Synthesis of an analogue of tabtoxinine as a potential inhibitor of D-alanine:D-alanine ligase (ADP forming)” (J Med Chem, 1989)
# Active and inactive are the calls of the source. No cut-off for these calls is given here.
# How the values were obtained:
# [1] = Compound was tested for its inhibitory activity against DAla-DAla Ligase; design: species or system Enterococcus faecalis
# [2] = Compound was tested for its inhibitory activity against DAla-DAla Ligase at 1 mM; No activity; design: species or system Enterococcus faecalis
# [3] = system: Escherichia coli; experiment: Antibacterial activity against Escherichia coli; Inactive; format: functional, organism-based
# [4] = system: Staphylococcus aureus; experiment: Antibacterial activity against Staphylococcus aureus; Inactive; format: functional, organism-based
Compound,IC50 [1],IC50 [2],Activity [3],Activity [4]
N[C@@H]1CONC1=O [CYCLOSERINE],250 µM,–,–,–
CC(N)P(=O)(O)O (stereo not drawn),930 µM,–,–,–
C[C@@H](N)[C@@]1(O)CNC1=O,–,Not Active,inactive,inactive
C[C@@H](N)[C@]1(O)CNC1=O,–,Not Active,inactive,inactive
